Data taken from patent publication US11793746B2, “Intense skin hydration systems and methods” (priority 2020, dated 2023).

What was measured:
[1] = system: human skin analog, Skin^2; test: MTT cytotoxicity assay; format: cell-based; conditions: cytotoxic = levels below 80% of untreated control
Excerpt: Preclinical studies used a three-dimensional metabolically and mitotically active in vitro human skin analog, Skin^2™. This human skin substrate consists of neonatal foreskin fibroblasts that secrete a functionally active extracellular matrix grown on a medical-grade nylon mesh cocultured with human neonatal foreskin keratinocytes that differentiate into a multilayered epidermis.
This Example tested cellular viability and measured cell respiration in vitro in response to the application of GC-100 preparations.
The toxicity of a substance can be quantified by sustained metabolic activity of the cell in the presence of test substance. The integrity of cellular metabolism can be evaluated using the MTT Coloration Assay, which relies on the metabolism of 3-[4,5-dimethylthiazol-2-yl]-2,5-diphenyl tetrazolium bromide by succinate dehydrogenase of the citric acid cycle. Since the metabolism of MTT is dependent on mitochondrial activity, the amount of metabolite produced can be correlated with the number of viable cells present per well. The metabolite concentration is measured via spectrophotometry, with the absorption value converted to an absolute number that describes cellular growth.

[2] = system: human diploid fibroblasts; test: Fibroblast proliferation (MTT) in suboptimal nutritional medium; format: cell-based; conditions: for Cells/well (×10^3): control 15
Excerpt: This Example quantifies the biostimulating activity of GC-100 on human diploid fibroblasts in a suboptimal nutritional environment.
Cellular proliferation, or mitotic activity, will be assessed using an MTT assay. MTT added to the microtiter wells is metabolized by succinate dehydrogenase of the citric acid cycle. Since the metabolism of MTT is dependent on mitochondrial activity, the amount of metabolite produced can be correlated with the number of viable cells present per well. The metabolite concentration is measured via spectrophotometry, with the absorption value converted to an absolute number that describes cellular growth based on standardized curves. The results are shown in Table 2 and FIG. 5, which is a graph showing fibroblast proliferation in a suboptimal nutritional environment.

[3] = system: ultraviolet-induced erythema; test: Ultraviolet-induced erythema, erythema scale; format: in vivo; conditions: for Erythema score (mean ± SD): scale 0 none to 4 severe
Description: The anti-inflammatory activity of GC-100 was evaluated using ultraviolet-induced erythema as an endpoint.
Ultraviolet radiation generates a predictable, dose-dependent cutaneous response over time. The pathological mechanism includes injury to epidermal, dermal, and vascular constituents of the skin with a local inflammatory response mediated by proinflammatory cytokines and prostaglandins. It is the objective of this experiment to determine whether GC-100 can alleviate an ultraviolet-mediated inflammatory response by qualitative assessment
Erythema was quantified after 2, 4, 5, and 24 hours following irradiation using a standard erythema scale that has been shown historically to yield reproducible results.

[4] = system: photodamaged human skin; test: Pilot open label study on photoaged skin: panelist questionnaire and side effects; format: in vivo
Description: A pilot open label study was conducted to establish the efficacy of GC-100 on photoaged skin in a clinical setting.
Primary endpoints for this study were as follows: • 1. Epidermal skin thickness was measured using high frequency ultrasound. • 2. Panelists regard for their overall appearance and any changes noted in the appearance of their wrinkles, lentigines, facial acne and pore size were used in qualitative analysis. In addition, panelists were asked to comment on irritation, novel rashes, and other side effects during the study period.
An open label, six week pilot study to examiner the regenerative effect of GC-100 was performed on 15 women with mild to moderate dermatoheliosis as defined by clinical examination. Exclusion criteria selected against patients with a history of retinoic acid use, dermabrasion, or chemical peel application within 6 months prior to study onset. However, all patients had used one or more of these products previously. After appropriate informed consent was obtained, baseline measurements of epidermal thickness using high frequency untrasonography (20 MHz and above) were collected using skin at the infraorbital prominence. Three measurements were taken at each site and averaged to yield a result. GC-100 was applied to the face and neck according to the following schedule: • Weekly: GC-100 applied in mask vehicle • Twice daily: GC-100 applied through lotion vehicle
The patient population was divided into two groups, where Group I was evaluated after 24 hours of product application, and Group II was evaluated at the conclusion of weeks 2, 4 and 6. A panelist questionnaire was completed during each evaluation session.

H-Lys-Pro-NH2 [GC-100]
cytotoxic response (MTT) [1]: does not elicit a cytotoxic response
Cells/well (×10^3) ([2]; 0.1% GC-100): 17 ×10^3 cells/well
Cells/well (×10^3) ([2]; 0.5% GC-100): 20 ×10^3 cells/well
Cells/well (×10^3) ([2]; 1.0% GC-100): 21 ×10^3 cells/well
Cells/well (×10^3) ([2]; 5% GC-100): 28 ×10^3 cells/well
Cells/well (×10^3) ([2]; 10% GC-100): 24 ×10^3 cells/well
Cumulative fibroblast proliferation (mitosis) ([2]; in the presence of GC-100): 83%
% printed under erythema score (reduction vs control) ([3]; 0.1% GC-100, 2 hrs): 32%
Erythema score (mean ± SD) ([3]; 0.1% GC-100, 2 hrs after irradiation): 1.89 ± 0.60
% printed under erythema score (reduction vs control) ([3]; 0.1% GC-100, 4 hrs): 58.7%
Erythema score (mean ± SD) ([3]; 0.1% GC-100, 4 hrs after irradiation): 1.56 ± 0.53
% printed under erythema score (reduction vs control) ([3]; 0.1% GC-100, 5 hrs): 58.3%
Erythema score (mean ± SD) ([3]; 0.1% GC-100, 5 hrs after irradiation): 1.67 ± 0.71
% printed under erythema score (reduction vs control) ([3]; 0.1% GC-100, 24 hrs): 50%
Erythema score (mean ± SD) ([3]; 0.1% GC-100, 24 hrs after irradiation): 1.00 ± 0.71
effect on ultraviolet-induced erythema ([3]; 0.1%, 0.5%, 1% GC-100, greatest activity with 1%): ability to suppress ultraviolet-induced erythema
% printed under erythema score (reduction vs control) ([3]; 0.5% GC-100, 2 hrs): 56.1%
Erythema score (mean ± SD) ([3]; 0.5% GC-100, 2 hrs after irradiation): 1.22 ± 0.44
% printed under erythema score (reduction vs control) ([3]; 0.5% GC-100, 4 hrs): 58.7%
Erythema score (mean ± SD) ([3]; 0.5% GC-100, 4 hrs after irradiation): 1.56 ± 0.53
% printed under erythema score (reduction vs control) ([3]; 0.5% GC-100, 5 hrs): 58.7%
Erythema score (mean ± SD) ([3]; 0.5% GC-100, 5 hrs after irradiation): 1.56 ± 0.53
% printed under erythema score (reduction vs control) ([3]; 0.5% GC-100, 24 hrs): 55.5%
Erythema score (mean ± SD) ([3]; 0.5% GC-100, 24 hrs after irradiation): 0.89 ± 0.33
% printed under erythema score (reduction vs control) ([3]; 1.0% GC-100, 2 hrs): 64%
Erythema score (mean ± SD) ([3]; 1.0% GC-100, 2 hrs after irradiation): 1.00
% printed under erythema score (reduction vs control) ([3]; 1.0% GC-100, 4 hrs): 67%
Erythema score (mean ± SD) ([3]; 1.0% GC-100, 4 hrs after irradiation): 1.22 ± 0.44
% printed under erythema score (reduction vs control) ([3]; 1.0% GC-100, 5 hrs): 66.81%
Erythema score (mean ± SD) ([3]; 1.0% GC-100, 5 hrs after irradiation): 1.33 ± 0.50
% printed under erythema score (reduction vs control) ([3]; 1.0% GC-100, 24 hrs): 83.5%
Erythema score (mean ± SD) ([3]; 1.0% GC-100, 24 hrs after irradiation): 0.33 ± 0.50
Incidence of side effects ([4]; panelist questionnaire): 0%
Positive response: Decreased appearance of lentigines ([4]; panelist questionnaire): 54%
Positive response: Decreased appearance of pores ([4]; panelist questionnaire): 92%
Positive response: Decreased appearance of wrinkles ([4]; panelist questionnaire): 62%
Positive response: Decreased incidence of blemishes ([4]; panelist questionnaire): 92%
Positive response: Improved overall cosmetic appearance ([4]; panelist questionnaire): 92%
clinical irritation during the study ([4]; six week study, face and neck): No clinically detectable irritation
